Here are results for one molecule from patent publication US8686016B2, “Schweinfurthins and uses thereof” (The United States of America, as represented by the …, priority 2009, dated 2014).

One data set deals with NCI 60-cell line panel. The data set can be described thus: NCI 60 cell line assay. The data set is classed as cell-based, human.
A further data set concerns MLC phosphorylation. Put plainly: Phospho-myosin light chain immunostaining, MPNST cell lines. The format is cell-based, mouse. As for the experimental part:
(§1) Cell Morphology Assays and Confocal Microscopy: To assay cytoskeleton morphology, KR158 cells, mouse primary astrocytes, KR158 clones expressing the NF1-GRD constructs, K14553 cells, and A549 were seeded to cover slips and allowed to reattach overnight. Cells were treated for 18 hours with either the indicated concentrations of SA, or the vehicle control DMSO. The cover slips were fixed in 3.7% paraformaldehyde, permeablized in 0.1% Triton-X100, and stained with Alexa Fluor 488-phalloidin (Invitrogen, Carlsbad, Calif., USA) to detect actin and cells were mounted in Prolong Antifade containing DAPI (Invitrogen) to stain nuclei. The cells were imaged on a LSM510 confocal microscope (Carl Zeiss Inc., Jena, Germany). For phospho-myosin light chain 2 (MLC) detection, cells were seeded to coverslips as described above. Cells were serum starved in 0.5% FBS and SA or DMSO vehicle control for 18 hours, and then pulsed with 10 ng/mL EGF (Invitrogen) for 5 min. […] Actin structures were monitored continuously over a 16 hr period using confocal microscopy equipped with a growth chamber (37° C., humidified atmosphere and 5% CO2). […]

Another data set has as its system MPNST T265 cells. Put plainly: XTT cell proliferation assay, T265. The format is cell-based, human. As for the experimental part: (§2) XTT Cell Proliferation Assay: Cells were seeded into 96-well plates at a density of 2,000 cells/well and allowed to reattach overnight. Cells were treated with SA, synthetic analogs, camptothecin (NCI Chemotherapeutics Repository, Md., USA), or DMSO control at the indicated concentrations continuously for 48 hours followed by assay in the 96-well plate for relative viable cell number using the dye […] (XTT) and a Wallac-Victor 2 plate reader (Perkin-Elmer, Waltham, Mass., USA). Absorbance was determined at 450 nm with 650 nm as a reference reading. Primary astrocytes were additionally assayed at a 96 hour time point.
(§3) Cell lines and culture: Human MPNST cell lines (STS26T and T265) were obtained from the Pediatric Oncology Branch, NCI (Bethesda, Md., USA).

The test system of data set [1] is sporadic MPNST STS26T cells. Put plainly: XTT cell proliferation assay, STS26T. The format is cell-based, human. As to the method:
as §2, §3

Another data set relates to A549 cells. The data set can be described thus: Cell morphology / actin confocal microscopy, A549. The format is cell-based, human. The settings on record: 18 hours treatment. As for the experimental part: as §1
For the next data set, the system named is Rho. The data set can be described thus: Rho GTPase pull-down assay. The data set is classed as cell-based, mouse. The note with it: EGF pulsed KR158 cells, 12 hrs and 18 hrs. As for the experimental part:
Rho GTPase Pull-Down Assay: The Rho pull down assay was obtained from Upstate Biolotech/Millipore (Billerica, Mass., USA, Cat#17-294). KR158 cells were harvested at approximately 80% confluency and seeded at 5×10^5 cells per well in a 6-well plate. After overnight recovery, cells were serum starved in 0.5% FBS for 18 hrs. Cells were then treated with 10 ng/mL EGF either in the presence or the absence of the indicted concentrations of SA for up to 18 hours. At the indicated time points, the cells were lysed according to the manufacturer's protocols. Proteins pulled down by the Rho-GTP binding beads were eluted by SDS, fractionated on a 10% SDS-PAGE gel, and transferred to a nitrocellulose membrane. Pre-pull-down lysates were run in parallel to determine total levels of Rho in each sample. The membrane was probed by an anti Rho antibody.

The test system of data set [2] is SF-295 human glioma cells. The data set can be described thus: Clonogenic assay, SF-295. The data set is classed as cell-based. The settings on record: 18 hrs treatment, colonies after one week. As to the method:
Clonogenic Assays: Monolayers of cells were treated for 18 hrs with SA, and then harvested, counted, and seeded to 35 mm dishes at a density of 1000 cells per dish. After one week, macroscopic colonies were stained with crystal violet (Sigma, St. Louis, Mo., USA) and counted.

The subject of another data set is SF-295 cells. Put plainly: XTT cell proliferation assay, SF-295. The format is cell-based, human. The settings on record: 48 hours. As for the experimental part: as §2
For the next data set, the system named is KR158 cells. Put plainly: MultiTox-Fluor Multiplex Cytotoxicity Assay. The format is cell-based, mouse. The settings on record: 48 hrs continuous treatment. As to the method: Cytotoxicity Assay: The MultiTox-Fluor Multiplex Cytotoxicity Assay (Promega, Madison, Wis., USA) was used according to manufacturer instructions. Briefly, KR158 cells were harvested and seeded 2,500 cells/well in a black walled 96-well plate (Corning, Lowell, Mass., USA). Cells were treated with SA or DMSO control at the indicated concentrations continuously for 48 hours followed by addition of the fluorescent substrates from the assay kit. The GF-AFC Substrate enters live cells where it is cleaved by the live-cell protease to release AFC. The bis-AAF-R110 substrate cannot enter live cells but instead is be cleaved by the dead-cell protease activity to release R110.

“Also recorded” adds a separate entry of the source.

On to `CC(C)=CCC/C(C)=C/Cc1c(O)cc(/C=C/c2cc(O)c3c(c2)C[C@@H]2C(C)(C)[C@H](O)[C@H](O)C[C@@]2(C)O3)cc1O` [SA, Schweinfurthin A], for which the selectivity in the data set with NCI 60-cell line panel is recorded as 1000 fold. Further, the differential cytotoxicity result in the data set with NCI 60-cell line panel (NCI 60-cell line panel) is listed as “significant differential cytotoxicity”. Also, in the data set with MLC phosphorylation, the MLC phosphorylation entry is recorded as “reduced MLC phosphorylation”. Further, the “inhibition of proliferation (percent viability versus control)” value in the data set with MPNST T265 cells was “potent inhibition of cell proliferation; also recorded: sensitive”; with SF-295 cells, “sensitive; also recorded: inhibited both the KR158 and SF-295 cell lines in a dose dependent manner”. In addition, in data set [1], the inhibition of proliferation result was “much weaker inhibition of proliferation; also recorded: are not”. For the same molecule, the “actin organization, phalloidin staining” value with A549 cells is listed as “no visible changes in actin organization”. Also, the Rho activity result with Rho is listed as “marked inhibition of Rho activity”. For the same molecule, the colony growth result in [2] is “inhibited; also recorded: dramatically restricted”. Further, the “cell killing (dead-cell protease activity)” value with KR158 cells was “dose dependent increase of dead-cell protease activity; also recorded: dose dependent increase in cell killing”.
